Test results taken from patent US7335722B2, “Peptides used as angiotensin converting enzyme inhibitor and preparation process thereof” (Food Industry Research and Development Institute, priority 1999, dated 2008).

Test system: ACE
Test: ACE inhibitory activity (IC50) of the isolated peptides, method not specified
Format: biochemical
Method: The five more apparent peaks in FIG. 4 are designated as A3-B4-C6-D1 to D5. The sequences of them are determined by sequence-determining machine. Five short-chain peptides, Val-Leu-Pro (VLP), Ilu-Leu-Pro (ILP), Val-Leu-Tyr (VLY), Val-Leu-Pro-Pro (VLPP) and Ilu-Leu-Pro-Pro (ILPP) are obtained. The ACE inhibitory activity of them (IC50) is determined.

Row | Substance | IC50 [µM]
1 | Ilu-Leu-Pro-Pro (ILPP) | 172
2 | VLPP [Val-Leu-Pro-Pro] | 97
